Data published in US5063210A, “Use of sulfated polysaccharides to decrease cholesterol and fatty acid absorption” (priority 1989, dated 1991).

Assays:
Assay type in all cases: biochemical
[1] = target: human 100 kDa cholesterol esterase; assay: Inhibition of triolein hydrolysis by the human 100 kDa cholesterol esterase; conditions: substrate triolein instead of cholesteryl oleate
Experimental: Alginic acid from Macrocystis pyrifera (kelp) was dissolved in water at a concentration of 1 mg/ml. This stock solution was used to prepare various polysaccharide concentrations down to 10^-5 mg/ml. Human pancreatic cholesterol esterase was purified as described by Bosner et al., Proc. Nat'l. Acad. Sci., 85, 7438 (1988). To measure cholesterol esterase inhibition by alginic acid, 50 μl of cholesterol esterase (10 μg/ml), 75 μl of phosphatidylcholine vesicles containing cholesteryl ^14 C-oleate (1 mM 2,000 CPM/nmole), 25 μl of 100 mM taurocholate, 120 μl of 150 mM Tris, pH 7.5 and 30 μl of test alginic acid solution were incubated at 37° C. for fifteen minutes. The assay was quenched by placing the reaction vessels in a 4° C. ice bath and by adding 0.6 ml of 0.3 N NaOH and 3 ml of benzene/chloroform/methanol (1.0/1.2/0.5). The quenched reactions were vortexed for 30 seconds, centrifuged at 3,000 g for 15 minutes and 1 ml of the upper aqueous phase was added to 7 ml of Aquasol-2 (DuPont) with 0.025 ml of 6 N HCl. These mixtures were vortexed for one minute and counted for ^14 C-oleate. The counts were compared to a sample which contained cholesterol esterase but no alginic acid to determine the percentage of inhibition.
(The same assay procedure was used as described in Part I, only triolein was used instead of cholesteryl oleate.) As shown in the table below, the IC50 for inhibition of triolein hydrolysis is nearly the same as that for cholesteryl oleate hydrolysis.

[2] = test system: human pancreatic cholesterol esterase; assay: Inhibition of human pancreatic cholesterol esterase, hydrolysis of cholesteryl 14C-oleate in phosphatidylcholine vesicles; conditions: for IC50, inhibition of cholesterol esterase (cholesteryl oleate hydrolysis) / IC50: substrate cholesteryl 14C-oleate, 37° C., 15 min; for IC50: molar values from assumed molecular weights
Experimental: Alginic acid from Macrocystis pyrifera (kelp) was dissolved in water at a concentration of 1 mg/ml. This stock solution was used to prepare various polysaccharide concentrations down to 10^-5 mg/ml. […] To measure cholesterol esterase inhibition by alginic acid, 50 μl of cholesterol esterase (10 μg/ml), 75 μl of phosphatidylcholine vesicles containing cholesteryl ^14 C-oleate (1 mM 2,000 CPM/nmole), 25 μl of 100 mM taurocholate, 120 μl of 150 mM Tris, pH 7.5 and 30 μl of test alginic acid solution were incubated at 37° C. for fifteen minutes. The assay was quenched by placing the reaction vessels in a 4° C. ice bath and by adding 0.6 ml of 0.3 N NaOH and 3 ml of benzene/chloroform/methanol (1.0/1.2/0.5). The quenched reactions were vortexed for 30 seconds, centrifuged at 3,000 g for 15 minutes and 1 ml of the upper aqueous phase was added to 7 ml of Aquasol-2 (DuPont) with 0.025 ml of 6 N HCl. These mixtures were vortexed for one minute and counted for ^14 C-oleate. The counts were compared to a sample which contained cholesterol esterase but no alginic acid to determine the percentage of inhibition.
To measure pancreatic cholesterol esterase inhibition by sulfated agar, 50 μl of pancreatic cholesterol esterase (10 μg/ml), 75 μl of phosphatidylcholine vesicles containing cholesteryl ^14 C-oleate (1 mM 2,000 CPM/nmole), 25 μl of 100 mM taurocholate, 120 μl of 150 mM Tris, pH 7.5 and 30 μl of test sulfated agar solution were incubated at 37° C. for fifteen minutes. The assay was quenched by placing the reaction vessels in a 4° C. ice bath and by adding 0.6 ml of 0.3 N NaOH and 3 ml of benzene/chloroform/methanol (1.0/1.2/0.5). The quenched reactions were vortexed for 30 seconds, centrifuged at 3,000 g for 15 minutes and 1 ml of the upper aqueous phase was added to 7 ml of Aquasol-2 (DuPont) with 0.025 ml of 6 N HCl. These mixtures were vortexed for one minute and counted for ^14 C-oleate. The counts were compared to a sample which contained cholesterol esterase but no sulfated agar to determine the percentage of inhibition.

cholesterol esterase = assay: Baking stability: cholesterol esterase inhibition by water extract of a baked corn muffin containing the inhibitor; conditions: baked fifteen minutes in a 400° oven
Experimental: The sulfated polysaccharides described here retain their inhibitory activity for prolonged periods at elevated temperatures. […] For example, 109 mg of cellulose sulfate were added to 198 gm (7 oz) of corn muffin mix (Gold Medal®) and the solid ingredients were thoroughly mixed together. After the addition of one egg and one-third cup milk, the muffin mix was stirred fifteen times. The mixture was poured into nine muffin tins and baked for fifteen minutes in a 400° oven. The next day one muffin was broken up, added to 100 ml of water and allowed to stand for fifteen minutes. The mixture was centrifuged and the clear supernatant was assayed for the presence of cholesterol esterase inhibition. The IC50 of this solution was achieved when this solution was diluted 10^3 -10^4 times.

IC50 [1] [nM]	Enhancement Factor ([2]; IC50 of alginic acid relative to IC50 of the sulfated derivative)	IC50, inhibition of cholesterol esterase (cholesteryl oleate hydrolysis) [2] [µg/mL]	IC50 [2] [nM]	Stability of inhibitory activity under baking conditions / elevated temperatures (cholesterol esterase)	Inhibition of cholesterol esterase (in words) [2]	Substance
42	1.0	4	20			Alginic acid
0.06			0.02	stable under baking conditions		Cellulose Sulfate
0.14			0.06			Chitin Sulfate
0.16		0.015	0.03			Chitosan Sulfate
			30			agar [native (unsulfated) agar]
					does not inhibit cholesterol esterase	pectin [native, unsulfated pectin]
